# Tests used:
# [1] = target: T1, acid ceramidase (Homo sapiens, UniProt Q13510); assay: Acid ceramidase inhibition, biochemical fluorescent assay with cell lysates overexpressing acid ceramidase, substrate Rbm14-12; conditions: substrate Rbm14-12 6.3 μM, pH 4.5, 1 hr preincubation at RT
# T1 construct: Cell lysates overexpressing acid ceramidase were used as the enzyme source; expressed in transfected cells
# T1 sequence (Q13510 22-395): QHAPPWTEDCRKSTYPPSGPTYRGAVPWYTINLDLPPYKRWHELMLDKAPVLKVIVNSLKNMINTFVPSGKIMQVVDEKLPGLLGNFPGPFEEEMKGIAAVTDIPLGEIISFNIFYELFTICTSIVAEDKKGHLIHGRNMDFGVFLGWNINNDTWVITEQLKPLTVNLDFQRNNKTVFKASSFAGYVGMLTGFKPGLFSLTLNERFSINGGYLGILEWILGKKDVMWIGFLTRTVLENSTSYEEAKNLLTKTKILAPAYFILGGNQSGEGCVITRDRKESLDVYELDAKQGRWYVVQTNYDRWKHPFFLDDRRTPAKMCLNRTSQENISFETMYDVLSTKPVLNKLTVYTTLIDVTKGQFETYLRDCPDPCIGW
# Method in brief: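 IC50 derived by four-parameter fitting of fluorescence (ex360 nm, em446 nm) produced after 1 hr in methanol/NaIO4/glycine stop buffer, pH 10.6. Reaction: 6.3 μM Rbm14-12, 1 hr RT, following 1 hr RT compound preincubation with 10 μg overexpressing-cell lysate protein in pH 4.5 NaAC/NaCl buffer.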
# [2] = Compound solubility in water
SMILES,IC50 [1] [nM],solubility [2] [µg/mL]
"Cn1c(=O)n(C(=O)NCCc2ccccc2)c2cccnc21 [Example 87, 3-Methyl-2-oxo-N-phenethyl-2,3-dihydro-1H-imidazo[4,5-b]pyridine-1-carboxamide]",> 1000,14.7
"Cn1c(=O)n(C(=O)NCCc2ccccc2)c2ncccc21 [Example 88, 1-Methyl-2-oxo-N-phenethyl-1,2-dihydro-3H-imidazo[4,5-b]pyridine-3-carboxamide]",< 200,26.4
"CN(C)CCOc1nc2ccccc2n1C(=O)NCCc1ccccc1 [Example 89, 2-(2-(Dimethylamino)ethoxy)-N-phenethyl-1H-benzo[d]imidazole-1-carboxamide]",< 200,27.6
"CC(C)Oc1cccc2c1ncn2C(=O)NCCc1ccccc1 [Example 90, 4-iso-Propoxy-N-phenethyl-1H-benzo[d]imidazole-1-carboxamide]",< 200,0.3
"CCOc1nc2ncccc2n1C(=O)NCCCc1ccccc1 [Example 91a, 2-Ethoxy-N-(3-phenylpropyl)-1H-imidazo[4,5-b]pyridine-1-carboxamide]",< 200,7
"CCOc1nc2cccnc2n1C(=O)NCCCc1ccccc1 [Example 91b, 2-ethoxy-N-(3-phenylpropyl)-3H-imidazo[4,5-b]pyridine-3-carboxamide]",< 200,21.1
"CCOc1nc2c(F)cccc2n1C(=O)NCCc1ccccc1 [Example 92, 2-Ethoxy-4-fluoro-N-phenethyl-1H-benzo[d]imidazole-1-carboxamide]",< 200,1.2
"CCOc1nc2c(Cl)cccc2n1C(=O)NCCc1ccccc1 [Example 93, 4-Chloro-2-ethoxy-N-phenethyl-1H-benzo[d]imidazole-1-carboxamide]",< 200,0.05
"CCCCNC(=O)n1c(OCC)nc2c(OC)cccc21 [Example 94, N-Butyl-2-ethoxy-4-methoxy-1H-benzo[d]imidazole-1-carboxamide]",200 to 1000,11.2
"CCCCNC(=O)n1c(OC(C)C)nc2ccccc21 [Example 96, N-Butyl-2-isopropoxy-1H-benzo[d]imidazole-1-carboxamide]",> 1000,10.3
"CCCCNC(=O)n1c(OCC)nc2ccccc21 [Example 97, N-Butyl-2-ethoxy-1H-benzo[d]imidazole-1-carboxamide]",200 to 1000,10.9
CCCCNC(=O)n1c(OC(C)C)nc2c(OC)cccc21 [Example 97a],200 to 1000,18
"COc1cccc2c1ncn2C(=O)NCCC(C)C [Example 98, N-iso-Pentyl-4-methoxy-1H-benzo[d]imidazole-1-carboxamide]",< 200,16
"CCCCNC(=O)n1c(OC)nc2c(OC)cccc21 [Example 100, N-Butyl-2,4-dimethoxy-1H-benzo[d]imidazole-1-carboxamide]",200 to 1000,28
"CCCCNC(=O)n1cnc2ccc(N3CCC(N4CCOCC4)CC3)cc21 [Example 101a, N-Butyl-6-(4-morpholinopiperidin-1-yl)-1H-benzo[d]imidazole-1-carboxamide]",< 200,26.7
"CCCCNC(=O)n1cnc2cc(N3CCC(N4CCOCC4)CC3)ccc21 [Example 101b, N-butyl-5-(4-morpholinopiperidin-1-yl)-1H-benzo[d]imidazole-1-carboxamide]",< 200,7.5
"CCCCNC(=O)n1cnc2ccc(N3CCC(N4CCN(C)CC4)CC3)cc21 [Example 102a, N-Butyl-6-(4-(4-methylpiperazin-1-yl)piperidin-1-yl)-1H-benzo[d]imidazole-1-carboxamide]",< 200,34.8
"CCCCNC(=O)n1cnc2cc(N3CCC(N4CCN(C)CC4)CC3)ccc21 [Example 102b, N-butyl-5-(4-(4-methylpiperazin-1-yl)piperidin-1-yl)-1H-benzo[d]imidazole-1-carboxamide]",200 to 1000,36.1
"CC(C)CCNC(=O)n1cnc2ccc(-c3cncnc3)cc21 [Example 103a, N-iso-Pentyl-6-(pyrimidin-5-yl)-1H-benzo[d]imidazole-1-carboxamide]",< 200,14.3
"CC(C)CCNC(=O)n1cnc2cc(-c3cncnc3)ccc21 [Example 103b, N-iso-pentyl-5-(pyrimidin-5-yl)-1H-benzo[d]imidazole-1-carboxamide]",< 200,11.9
"CC(C)CCNC(=O)n1c(=O)n(C)c2cccnc21 [Example 104, N-iso-Pentyl-1-methyl-2-oxo-1,2-dihydro-3H-imidazo[4,5-b]pyridine-3-carboxamide]",200 to 1000,17

SMILES,IC50 [1] [nM],solubility [2] [µg/mL]
"CC(C)CCNC(=O)n1c(=O)n(C)c2ncccc21 [Example 105, N-iso-Pentyl-3-methyl-2-oxo-2,3-dihydro-1H-imidazo[4,5-b]pyridine-1-carboxamide]",> 1000,17.4
"COc1nc2ccc(-c3cncnc3)cc2n1C(=O)NCCC(C)C [Example 106, N-iso-Pentyl-2-methoxy-6-(pyrimidin-5-yl)-1H-benzo[d]imidazole-1-carboxamide]",200 to 1000,13.7
"CC(C)CCNC(=O)n1cnc2ccccc21 [Example 107, N-iso-Pentyl-1H-benzo[d]imidazole-1-carboxamide]",< 200,13.9
CCCCNC(=O)n1cnc2c(C3CCN(C)CC3)cc(C)cc21 [Example 107a],200 to 1000,31.7
"Cc1ccc(CCNC(=O)n2cnc3ccccc32)cc1 [Example 108, N-(4-Methylphenethyl)-1H-benzo[d]imidazole-1-carboxamide]",< 200,6.8
"CCC(C)NC(=O)n1c(OC)nc2ccc(-c3cncnc3)cc21 (stereo not shown) [Example 109a, N-(sec-Butyl)-2-methoxy-6-(pyrimidin-5-yl)-1H-benzo[d]imidazole-1-carboxamide]",> 1000,28.7
"CCC(C)NC(=O)n1c(OC)nc2cc(-c3cncnc3)ccc21 (stereo not shown) [Example 109b, N-(sec-butyl)-2-methoxy-5-(pyrimidin-5-yl)-1H-benzo[d]imidazole-1-carboxamide]",> 1000,32.4
"CC(C)CCNC(=O)n1c(=O)n(C)c2ncc(-c3cccnc3)cc21 [Example 110, N-iso-Pentyl-3-methyl-2-oxo-6-(pyridin-3-yl)-2,3-dihydro-1H-imidazo[4,5-b]pyridine-1-carboxamide]",> 1000,18
"COc1nc2ccc(-c3cncnc3)cc2n1C(=O)NC1CCCCC1 [Example 111a, N-Cyclohexyl-2-methoxy-6-(pyrimidin-5-yl)-1H-benzo[d]imidazole-1-carboxamide]",< 200,6
"COc1nc2cc(-c3cncnc3)ccc2n1C(=O)NC1CCCCC1 [Example 111b, N-cyclohexyl-2-methoxy-5-(pyrimidin-5-yl)-1H-benzo[d]imidazole-1-carboxamide]",< 200,22
Cc1cc(C2CCN(C)CC2)c2ncn(C(=O)NCCC(C)C)c2c1 [Example 112a],200 to 1000,22.9
CC(C)CCNC(=O)n1cnc2c(C3CCN(C)CC3)cc(Cl)cc21 [Example 112b],200 to 1000,20
"CCOc1nc2ncccc2n1C(=O)NCCC(C)C [Example 114, 2-Ethoxy-N-iso-pentyl-1H-imidazo[4,5-b]pyridine-1-carboxamide]",200 to 1000,16.8
"COc1cccc2c1nc(OC)n2C(=O)NCCC(C)C [Example 115, N-iso-Pentyl-2,4-dimethoxy-1H-benzo[d]imidazole-1-carboxamide]",> 1000,15.4
"CCOc1nc2c(OC)cccc2n1C(=O)NCCC1CC1 [Example 116, N-(2-Cyclopropylethyl)-2-ethoxy-4-methoxy-1H-benzo[d]imidazole-1-carboxamide]",> 1000,14.1
"CCC(C)CNC(=O)n1c(OC)nc2c(OC)cccc21 (stereo not shown) [Example 117, 2,4-Dimethoxy-N-(2-methylbutyl)-1H-benzo[d]imidazole-1-carboxamide]",200 to 1000,23.4
"CC(C)CCNC(=O)n1cnc2c(N3CCOCC3)cccc21 [Example 118, N-iso-Pentyl-4-morpholino-1H-benzo[d]imidazole-1-carboxamide]",200 to 1000,21
"CC(C)CCNC(=O)n1cnc2c(N3CCN(C)CC3)cccc21 [Example 119, N-iso-Pentyl-4-(4-methylpiperazin-1-yl)-1H-benzo[d]imidazole-1-carboxamide]",200 to 1000,23
"CC(C)CCNC(=O)n1c(OCCN(C)C)nc2ccccc21 [Example 120, 2-(2-(Dimethylamino)ethoxy)-N-iso-pentyl-1H-benzo[d]imidazole-1-carboxamide]",< 200,21
"COc1cccc2c1ncn2C(=O)NCCC1CC1 [Example 121, N-(2-Cyclopropylethyl)-4-methoxy-1H-benzo[d]imidazole-1-carboxamide]",200 to 1000,22.6

# From US20220380319A1 (Bial - R&D Investments, S.A., priority 2019, published 2022)
